Patent US20250195483A1, “SPIRO PIPERIDINE DERIVATIVES AS INHIBITORS OF APOL1 AND METHODS OF USING SAME” (Vertex Pharmaceuticals Incorporated, priority 2022, published 2025)

These compounds were tested against T1, APOL1 (Homo sapiens, UniProt O14791) (assay: MultiTox-Fluor Multiplex Cytotoxicity Assay, tet-inducible APOL1 T-REx-HEK293 cells (G0, G1 or G2 clone not specified for Table 20)). Details: tet-induced, 24 hours with compound, ratio of dead to live cells, read-out: IP50 (i.e., IC50 for cell proliferation).
T1 sequence (O14791 1-398): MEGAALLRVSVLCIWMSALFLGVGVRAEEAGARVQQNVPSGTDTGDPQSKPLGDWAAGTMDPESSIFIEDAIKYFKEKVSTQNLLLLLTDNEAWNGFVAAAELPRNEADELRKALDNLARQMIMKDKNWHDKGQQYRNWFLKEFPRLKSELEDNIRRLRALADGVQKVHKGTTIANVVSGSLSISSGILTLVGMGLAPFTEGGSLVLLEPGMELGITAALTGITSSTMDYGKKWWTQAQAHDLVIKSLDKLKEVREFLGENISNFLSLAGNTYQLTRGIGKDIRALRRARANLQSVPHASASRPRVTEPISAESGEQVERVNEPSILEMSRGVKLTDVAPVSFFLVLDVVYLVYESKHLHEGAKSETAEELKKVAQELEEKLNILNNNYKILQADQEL
Format: cell-based
Experimental: Human embryonic kidney (HEK293) cell lines containing a tet-inducible expression system (T-REx™; Invitrogen, Carlsbad, CA) and Adeno-associated virus site 1 pAAVS1-Puro-APOL1 G0 or pAAVS1-Puro-APOL1 G1 or pAAVS1-Puro-APOL1 G2 Clones G0 DC2.13, G1 DC3.25, and G2 DC4.44 were grown in a T-225 flask at ˜90% confluency in cell growth media (DMEM, 10% Tet-free FBS, 2 mM L-glutamine, 100 Units/mL penicillin-streptomycin, 5 μg/mL blasticidin S HCl, 1 μg/mL puromycin dihydrochloride). Cells were washed with DPBS and then trypsinized to dissociate from the flask. Media was used to quench the trypsin, cells were then pelleted at 200 g and resuspended in fresh cell assay media (DMEM, 2% Tet-free FBS, 2 mM L-glutamine, 100 Units/mL penicillin-streptomycin). Cells were counted and diluted to 1.17×10^6 cells/mL. 20 μL of cells (23,400/well) were dispensed in every well of a 384-well Poly-D-Lysine coated plate using the Multidrop dispenser. The plates were then incubated at room temperature for one hour.
Tetracycline is needed to induce APOL1 expression. 1 mg/mL tet stock in water was diluted to 250 ng/mL (5×) in cell assay media. 60 μL of cell assay media (no tet control) was dispensed in columns 1 and 24, and 60 μL of 5× tet in 384-PP-round bottom plate was dispensed in columns 2 to 23 with the Multidrop dispenser.
Assay ready plates from the Global Compound Archive were ordered using template 384_APOL1Cell_DR10n2_50 uM_v3. Compounds were dispensed at 200 nL in DMSO. The final top concentration was 10 μM with a 10 point 3-fold dilution in duplicate in the MultiTox assay.
20 μL was transferred from the 5× tet plate to the ARP and mixed, then 5 μL of 5× tet and the compounds were transferred to the cell plate and mixed using the Bravo. The cell plate was placed in the humidified 37° C. 5% CO2 incubator for 24 hours.
The MultiTox-Fluor Multiplex Cytotoxicity Assay was performed in accordance with the manufacturer's protocol. After cells were incubated with tet and compound for 24 hours, 25 μL of 1× MultiTox reagent was added to each well using the Multidrop dispenser; the plates were placed on a plate shaker (600 rpm) for 2 minutes, then centrifuged briefly and placed back in the 37° C. incubator for 30 minutes. The cell viability (excitation: 400 nm, emission: 486 nm) and cytotoxicity (excitation: 485 nm, emission: 535 nm) were read using the EnVision plate reader. A ratio of dead (cytotoxicity) to live (viability) cells was reported. Data was exported and analyzed in Genedata. Data was normalized using percent of control, no tet (100% viability), and 50 ng/mL tet treated (0% viability), and fit using Smart Fit settings in Genedata.

Compound	IC50
CN1C(=O)C2(CCN(Cc3cnc(NC(C)(C)CO)nc3)CC2)c2cc(Cl)ccc21 [Compound 40]	50 to 500 nM
CC(CO)(CO)Cn1cc(CN2CCC3(CC2)C(=O)Nc2ccc(Cl)cc23)nn1 [Compound 41, 5-chloro-1′-[[1-[3-hydroxy-2-(hydroxymethyl)-2-methyl-propyl]triazol-4-yl]methyl]spiro[indoline-3,4′-piperidine]-2-one]	50 to 500 nM
CN1C(=O)C2(CCN(Cc3cn(CCO)nn3)CC2)c2cc(Cl)ccc21 [Compound 43]	≥ 500 nM
CN1C(=O)C2(CCN(Cc3cn(CC(C)(CO)CO)nn3)CC2)c2cc(Cl)ccc21 [Compound 44]	≥ 500 nM
CS(=O)(=O)CCn1cc(CN2CCC3(CC2)C(=O)N(CCO)c2ccc(Cl)cc23)cn1 [Compound 45, 5-chloro-1-(2-hydroxyethyl)-1′-[[1-(2-methylsulfonylethyl)pyrazol-4-yl]methyl]spiro[indoline-3,4′-piperidine]-2-one]	50 to 500 nM
O=C1N(CCO)c2ccc(Cl)cc2C12CCN(Cc1cn[nH]c1)CC2 [Compound 46]	50 to 500 nM
CCN1C(=O)C2(CCN(Cc3cnn(CCS(C)(=O)=O)c3)CC2)c2cc(Cl)ccc21 [Compound 48]	50 to 500 nM
CS(=O)(=O)CCn1cc(CN2CCC3(CC2)C(=O)N(C2COC2)c2ccc(Cl)cc23)cn1 [Compound 49]	50 to 500 nM
CS(=O)(=O)CCn1cc(CN2CCC3(CC2)C(=O)N(CC(F)(F)F)c2ccc(Cl)cc23)cn1 [Compound 50]	50 to 500 nM
COCCN1C(=O)C2(CCN(Cc3cnn(CCS(C)(=O)=O)c3)CC2)c2cc(Cl)ccc21 [Compound 51]	≥ 500 nM
CN1C(=O)C2(CCN(Cc3cnn(CC(C)(C)O)c3)CC2)c2cc(Cl)ccc21 [Compound 52, 5-chloro-1′-[[1-(2-hydroxy-2-methyl-propyl)pyrazol-4-yl]methyl]-1-methyl-spiro[indoline-3,4′-piperidine]-2-one]	≤ 50 nM
CN1C(=O)C2(CCN(Cc3cnn(CC(O)C(F)(F)F)c3)CC2)c2cc(Cl)ccc21 (stereo not shown) [Compound 53]	50 to 500 nM
CN1C(=O)C2(CCN(Cc3cnn(CC4(O)CCS(=O)(=O)CC4)c3)CC2)c2cc(Cl)ccc21 [Compound 54]	50 to 500 nM
CN1C(=O)C2(CCN(Cc3cnn(CCO)c3)CC2)c2cc(Cl)ccc21 [Compound 55]	≥ 500 nM
CN1C(=O)C2(CCN(C[C@H]3C[C@@H](NC(=O)c4cc(C5CC5)no4)C3)CC2)c2cc(Cl)ccc21 [Compound 60, N-[3-[(5-chloro-1-methyl-2-oxo-spiro[indoline-3,4′-piperidine]-1′-yl)methyl]cyclobutyl]-3-cyclopropyl-isoxazole-5-carboxamide]	≥ 500 nM
CN1C(=O)C2(CCN(Cc3cnn(C[C@H]4C[C@@H](NS(=O)(=O)C5CC5)C4)c3)CC2)c2cc(Cl)ccc21 [Compound 65]	≥ 500 nM
Cc1cc(C(=O)N[C@H]2C[C@H](Cn3cc(CN4CCC5(CC4)C(=O)N(C)c4ccc(Cl)cc45)cn3)C2)on1 [Compound 70]	≥ 500 nM
CN1C(=O)C2(CCN(Cc3cnn(CCS(N)(=O)=O)c3)CC2)c2ccccc21 [Compound 72, 2-(4-((I-methyl-2-oxospiro[indoline-3,4′-piperidin]-1′-yl)methyl)-1H-pyrazol-1-yl)ethane-1-sulfonamide]	≥ 500 nM
CS(=O)(=O)CCn1cc(CN2CCC3(CC2)C(=O)N(CC(F)F)c2ccccc23)cn1 [Compound 73]	≥ 500 nM
C[C@H]1C[C@@]2(CCN1Cc1cnn(CCO)c1)C(=O)Nc1ccc(Cl)cc12 [Compound 75]	50 to 500 nM
C[C@H]1C[C@@]2(CCN1Cc1cnn(CC(=O)N(C)C)c1)C(=O)Nc1ccc(Cl)cc12 [Compound 76]	≤ 50 nM
C[C@H]1C[C@@]2(CCN1Cc1cnn(CCS(C)(=O)=O)c1)C(=O)N(C)c1ccc(Cl)cc12 [Compound 80, (2′S,3R)-5-chloro-1,2′-dimethyl-1′-[[1-(2-methylsulfonylethyl)pyrazol-4-yl]methyl]spiro[indoline-3,4′-piperidine]-2-one trifluoracetic acid]	≤ 50 nM
CN1C(=O)C2(CCN(Cc3cnn(CCS(C)(=O)=O)c3)CC2)c2cc(C(F)(F)F)ccc21 [Compound 83]	≥ 500 nM
CCc1ccc2c(c1)C1(CCN(Cc3cnn(CCS(C)(=O)=O)c3)CC1)C(=O)N2C [Compound 84]	≥ 500 nM
CN1C(=O)C2(CCN(Cc3cnn(CCS(C)(=O)=O)c3)CC2)c2cc(OC(F)F)ccc21 [Compound 85]	≥ 500 nM

Compound	IC50
CS(=O)(=O)CCn1cc(CN2CCC3(CC2)C(=O)N(Cc2ccccc2)c2ccc(OC(F)F)cc23)cn1 [Compound 86]	≥ 500 nM
CN1C(=O)C2(CCN(Cc3cnn(CCS(C)(=O)=O)c3)CC2)c2cc(OC(F)(F)F)ccc21 [Compound 87]	≥ 500 nM
C[C@H]1C[C@@]2(CCN1Cc1cnn(CCS(C)(=O)=O)c1)OCCc1ccc(Cl)cc12 [Compound 88, (1R,2′S)-7-chloro-2′-methyl-1′-[[1-(2-methylsulfonylethyl)pyrazol-4-yl]methyl]spiro[isochromane-1,4′-piperidine]]	≤ 50 nM
CC1COC2(CCN(Cc3cnn(C)c3)CC2)c2ccccc21 (stereo not shown) [Compound 89, 4-methyl-1′-[(1-methylpyrazol-4-yl)methyl]spiro[isochromane-1,4′-piperidine]]	≥ 500 nM
Cc1ccc2c(c1)[C@]1(CCN(Cc3cnn(C)c3)[C@@H](C)C1)OCC2 [Compound 91]	≤ 50 nM
Cc1ccc2c(c1)C1(CCN(Cc3cnn(C)c3)C(C)C1)OCC2 (stereo not shown) [Compound 92]	≤ 50 nM
Cc1ccc2c(c1)C1(CCN(Cc3cnn(C)c3)C(C)C1)OCC2 (stereo not shown) [Compound 93]	≤ 50 nM
Cc1ccc2c(c1)[C@]1(CCN(Cc3cnc(NC(C)(C)CO)nc3)[C@@H](C)C1)OCC2 [Compound 94]	≤ 50 nM
Cc1ccc2c(c1)[C@@]1(CCN(Cc3cnc(NC(C)(C)CO)nc3)[C@@H](C)C1)OCC2 [Compound 95]	≥ 500 nM
Cc1ccc2c(c1)[C@]1(CCN(Cc3cn[nH]c3)[C@@H](C)C1)OCC2 [Compound 96]	≤ 50 nM
Cc1ccc2c(c1)C1(CCN(Cc3cn[nH]c3)[C@@H](C)C1)OCC2 (stereo partly shown) [Compound 97]	≥ 500 nM
Cc1ccc2c(c1)C1(CCN(Cc3cnn(CCO)c3)[C@@H](C)C1)OCC2 (stereo partly shown) [Compound 98]	≤ 50 nM
Cc1ccc2c(c1)C1(CCN(Cc3cnn(CCO)c3)[C@@H](C)C1)OCC2 (stereo partly shown) [Compound 99]	≥ 500 nM
Cc1ccc2c(c1)[C@]1(CCN(Cc3cnn(CC(C)(CO)CO)c3)[C@@H](C)C1)OCC2 [Compound 100]	≤ 50 nM
Cc1ccc2c(c1)[C@@]1(CCN(Cc3cnn(CC(C)(CO)CO)c3)[C@@H](C)C1)OCC2 [Compound 101]	50 to 500 nM
C[C@H]1C[C@@]2(CCN1Cc1cnn(CC(=O)N(C)C)c1)OCCc1ccc(Cl)cc12 [Compound 102]	50 to 500 nM
C[C@H]1C[C@@]2(CCN1Cc1cnn(CCO)c1)OCCc1ccc(Cl)cc12 [Compound 103]	≤ 50 nM
C[C@H]1C[C@@]2(CCN1Cc1cn[nH]c1)OCCc1ccc(Cl)cc12 [Compound 104]	≤ 50 nM
C[C@H]1C[C@@]2(CCN1Cc1cn(C)nn1)OCCc1ccc(Cl)cc12 [Compound 105]	≤ 50 nM
C[C@H]1C[C@@]2(CCN1Cc1c[nH]nn1)OCCc1ccc(Cl)cc12 [Compound 106]	≤ 50 nM
C[C@H]1C[C@@]2(CCN1Cc1ccc3c(c1)n(C)c(=O)n3C)OCCc1ccc(Cl)cc12 [Compound 107]	≤ 50 nM
C[C@H]1C[C@@]2(CCN1Cc1cn(C)cn1)OCCc1ccc(Cl)cc12 [Compound 108]	≥ 500 nM
Cc1cc(CN2CC[C@]3(C[C@@H]2C)OCCc2ccc(Cl)cc23)[nH]n1 [Compound 109]	≤ 50 nM
C[C@H]1C[C@@]2(CCN1Cc1ncc[nH]1)OCCc1ccc(Cl)cc12 [Compound 110]	50 to 500 nM
